Test results from patent US12311028B2, “Polymer-based macromolecular prodrugs” (The Children's Hospital of Philadelphia, priority 2018, dated 2025).
Entries after “also recorded” stand apart in the source; their conditions may differ. Where two headings read alike, the source gives them in different places.

Columns and labels:
BE(2)C cells [1] = conditions: free SN22 with or without unmodified Pluronic F-108
[2] = tested on: NLF and ABCG2-expressing clones; assay: Growth of NLF and ABCG2-expressing clones in presence of SN38 or SN22 (IncuCyte); type: cell-based, human
Description: FIG. 7: ABCG2 expression and growth of NLF and transfected clones. (A) Western analysis was performed on NLF and three single-cell clones with an ABCG2 antibody (Santa Cruz), compared to an actin control. Clones 1, 2 and 3 had trace, low and, intermediate levels of ABCG2 expression, respectively. (B) Growth of NLF and ABCG2-expressing clones in the presence of SN38 or SN22 (50 ng/ml). Growth shown at day 4.
To evaluate susceptibility of SN38 and SN22 to ABCG2 efflux, an ABCG2-null NB cell line, NLF, was identified. NLF was transfected with an ABCG2 expression vector, and then selected single-cell clones with trace, low, and intermediate levels of ABCG2 expression (FIG. 7A). Next, the sensitivity of NLF and ABCG2-expressing clones to different concentrations of SN38 or SN22 and monitored growth continuously using IncuCyte® S3 Live-Cell Analysis System was assessed.

BE(2)C cells [3] = conditions: derived at relapse; cited from earlier work
BE(2)C cells [4] = assay: Antiproliferative effect of [PEG-SN38-BG]8 on BE(2)C with/without vorinostat or entinostat; type: cell-based, human; conditions: 6 hr exposure, 25-100 nM SN-38 equivalent, vorinostat 1.25-5.0 μM, 6 days post treatment
Description: Cell growth was measured by bioluminescence. BE(2)C cell survival data at 6 days post treatment were analyzed for hyperadditivity by applying a model z=z0+A·x+B·y+C·[x·y] and determining the significance of the interaction term C.
The effect on cell growth kinetics was studied in comparison to free SN-38 or bipartite [PEG-SN38]8 lacking functionalization with BG (A). Cells were exposed for 4 hr to equivalent concentrations of the compounds, corresponding to 125 nM of SN-38. In an additional experiment (B), the response to treatment with [PEG-SN38-BG]8 was examined with/without a HDAC1-specific inhibitor, entinostat (0-5 μM). The doses of the prodrug were varied within a range equivalent to 0-100 nM SN-38, and the exposure duration was fixed at 6 hr. Cell growth was monitored by bioluminescence. The response is shown as % cell survival (mean±SD) at 6 days post-treatment. Experimental data were analyzed for hyperadditivity using a model z=z0+A·x+B·y+C·[x·y] and determining the significance of the interaction term C.
To evaluate the specific contribution of the targeting ligand incorporated in the prodrug structure, the cell growth inhibitory activity of [PEG-SN38-BG]8 on NET-expressing, chemoresistant NB cells was compared to that of a control molecule, [PEG-SN38]8, constructed analogously but without the BG moiety.

BE(2)C cells [5] = assay: Antiproliferative effect of PF68-SN38-BG vs PF68-SN38 and SN-38 on BE(2)C, 15-min exposure; type: cell-based, human; conditions: SN-38 equivalent dose 0-25 nM
From the text: Blank Pluronic F-68 had no effect on cell growth.

BE(1) cells = conditions: derived at diagnosis; cited from earlier work
[6] = tested on: orthotopic BE(2)C xenografts; assay: Therapeutic efficacy of [PEG-SN38-BG]8 in orthotopic model of refractory NB; type: in vivo, mice
Description: FIG. 12: Therapeutic efficacy of [PEG-SN38-BG]8 in an orthotopic model of refractory, high-risk NB. Athymic nude (nu/nu) mice were inoculated with BE(2)C cells (10^6) stably expressing luciferase. Treatment with [PEG-SN38-BG]8 was administered intravenously at a dose equivalent to 10 mg/kg of SN-38 twice a week for 4 weeks. […] A group of mice administered with saline (no treatment) was used as a negative control. In an additional group, the prodrug was administered using the same regimen to animals allowed to reach a 10-fold larger tumor size (2.0 cm^3, ‘large tumors’). Tumor-associated signal was monitored by quantitative bioluminescence. Data presented graphically in (A) are expressed as mean±SD. The survival curves for respective animal groups over a 190-day period are shown in (B).
FIG. 16: Therapeutic efficacy of [PEG-SN38-BG]8 in an orthotopic model of refractory, high-risk NB. Athymic nude (nu/nu) mice were inoculated with BE(2)C cells (10^6) stably expressing luciferase. Treatment with [PEG-SN38-BG]8 was administered intravenously at a dose equivalent to 10 mg/kg of SN-38 twice a week for 4 weeks. […] Groups of mice administered either with blank PEG or saline (no treatment) were used as negative controls (A). […] Tumor-associated signal was monitored by quantitative bioluminescence. Data are presented as mean±SD.

[7] = tested on: spontaneous NB tumors, TH-MYCN transgenic mouse; assay: TH-MYCN transgenic mouse model of de novo NB; type: in vivo, mice; conditions: once a week x4 weeks; PEG-[SN22]4 10 mg/kg/dose, CPT-11 15 mg/kg/dose
Description: Mice were treated with saline (N=8), CPT-11 (15 mg/kg/dose; N=7), PEG-[SN38]4 (10 mg/kg/dose; N=6) or PEG-[SN22]4 (10 mg/kg/dose; N=6) IV by tail vein once a week×4 weeks. Treatments started when the mice were about 5 weeks old with a tumor size about 1-2 cm^3.
PEG-[SN22]4 was also used to treat de novo NBs in a TH-MYCN transgenic mouse model. Spontaneous tumors develop in paraspinal ganglia or in the adrenal gland by 4-5 weeks in almost all mice with two copies of the transgene. Mice were divided into 4 groups once tumors became palpable (4-5 weeks): control-no treatment; CPT-11 treatment (15 mg/kg/dose), PEG-[SN38]4 (10 mg/kg/dose), or PEG-[SN22]4 (10 mg/kg/dose). Mice were treated once a week for 4 weeks. […] Mice were sacrificed when they became symptomatic from tumor burden.
Mice. Six-week-old Foxn1^nu/Foxn1^nu (JAX stock #007850) mice from Jackson Laboratories are used. Mice are maintained under humidity- and temperature-controlled conditions in a light/dark cycle that is set at 12-hour intervals. These mice are in a 129-SvJ background. Mice homozygous for the transgene generally develop tumors within 4-5 weeks.

[8] = tested on: disseminated BE(2)C tumor deposits; assay: Therapeutic efficacy of [PEG-SN38-BG]8 in model of metastatic, refractory NB; type: in vivo, mice; conditions: from day 25, 4 weeks 2x/week; prodrug 10 mg SN-38 per kg, irinotecan 15 mg/kg
Description: Mice were injected through the tail vein with 10^6 luciferase-expressing BE(2)C cells. […] Tumor-associated signal was monitored by quantitative bioluminescence ((A), data shown as mean±SD). Representative images are included in (B).

[9] = tested on: orthotopic BE(2)C xenograft tumors; assay: Therapeutic efficacy of NET-directed Pluronic F-108 tripartite prodrug in refractory NB model; type: in vivo, mice; conditions: 4 weeks 2x/week; constructs 10 mg SN-38 per kg, irinotecan 15 mg/kg
From the text: FIG. 21: Therapeutic efficacy of NET-directed delivery in a model of refractory NB. Mice were inoculated in the suprarenal fat pad with 10^6 luciferase-expressing BE(2)C cells. […] Alternatively, tumors were allowed to reach 2 cm^3 before starting therapy (B). Disease progression was monitored by quantitative bioluminescence. Tumor growth data are shown as mean±SD.

[10] = tested on: orthotopic BE(2)C xenografts; type: in vivo; conditions: PF108-(SN22)2 10 mg/kg SN22 IV once a week x4; irinotecan 10 mg/kg SN38 twice a week
From the text: Saline or chemically unmodified Pluronic F-108 were used as negative controls.

[11] = tested on: SKNBE(2)C orthotopic xenograft; assay: NB orthotopic xenograft model with chemo-resistant SKNBE(2)C; type: in vivo, mice; conditions: once a week x4 weeks; prodrugs 10 mg/kg/dose, CPT-11 15 mg/kg/dose
Description: Chemoresistant, luciferase transfected, SKNBE(2)C cells (107) were injected in the perineal fat pad of nude mice. Mice were divided into five groups: no treatment, or treatment with blank PEG, CPT-11, PEG-[SN38]4 or PEG-[SN22]4 (10 animals per group). Treatment started when tumors reached about 0.2 cm^3.
Mice were divided into five groups: no treatment, or treatment with blank PEG, CPT-11, PEG-[SN22]4 or PEG-[SN38]4 (10 animals per group). Treatment started when tumors reached about 0.2 cm^3.
Next, PEG-[SN22]4, PEG-[SN38]4 and CPT-11 in a NB orthotopic xenograft mouse model with the chemo-resistant NB line SKNBE(2)C. BE(2)C cells were transfected with a luciferase expression vector to allow for bioluminescent imaging. Mice were treated once a week for 4 weeks with either PEG-[SN22]4 (10 mg/kg/dose), PEG-[SN38]4 (10 mg/kg/dose) or CPT-11 (15 mg/kg/dose).
BE(2)C cells were transfected with a luciferase expression vector to allow for bioluminescent imaging. Mice were treated once a week for four weeks with either PEG-[SN22]4 (10 mg/kg/dose), PEG-[SN38]4 (10 mg/kg/dose) or CPT-11 (15 mg/kg/dose).

[12] = tested on: orthotopic IMR-32 xenografts; assay: Therapeutic efficacy of [PEG-SN38-BG]8 in orthotopic IMR-32 xenograft model; type: in vivo, mice; conditions: doses equivalent to 10 mg SN-38 per kg, 2x week over 4 weeks, from day 21
From the text: FIG. 15: Therapeutic efficacy of [PEG-SN38-BG]8 in an orthotopic xenograft model of chemo-naïve, MYCN-amplified NB. Mice were inoculated with 10^6 luciferase-expressing IMR-32 cells. […] Tumor-associated signal was monitored by quantitative bioluminescence. Data in (A) are shown as mean±SD. Representative bioluminescent images for each group are included in (B).
FIG. 17: Therapeutic efficacy of [PEG-SN38-BG]8 in an orthotopic xenograft model of chemo-naïve, MYCN-amplified NB. Mice were inoculated with 10^6 luciferase-expressing IMR-32 cells. […] Tumor-associated signal was monitored by quantitative bioluminescence. Data in (A) are shown as mean±SD. Representative images are included in (B).
The effectiveness of the tripartite prodrug strategy in providing sustained anticancer effects against aggressive NB tumors was shown experimentally in an orthotopic IMR-32 xenograft model (FIG. 15).

[13] = tested on: orthotopic IMR-32 xenografts; assay: Therapeutic efficacy of PF108-(SN22)2 in orthotopic IMR-32 xenograft model; type: in vivo, mice; conditions: PF108-(SN22)2 once a week; irinotecan 2x a week; 10 mg drug per kg
From the text: Mice were inoculated with 10^6 luciferase-expressing IMR-32 cells. […] Tumor-associated signal was monitored by quantitative bioluminescence. Quantitative data are shown as mean±SD.

Q: Which “responsiveness of BE(2)C cells vs IMR-32” value (BE(2)C cells [1]) does the source give for `CCc1c2c(nc3ccccc13)-c1cc3c(c(=O)n1C2)COC(=O)[C@]3(O)CC` [SN22, 7-ethyl-camptothecin] here?
A: strongly shifted in comparison to IMR-32 toward higher doses and longer exposure durations

Q: What about the “sensitivity of clones with higher ABCG2 levels” value ([2]; NLF clones with trace, low, intermediate ABCG2, 50 ng/ml, day 4) of the same molecule?
A: remained fully sensitive

Q: With `CCc1c2c(nc3ccc(O)cc13)-c1cc3c(c(=O)n1C2)COC(=O)[C@]3(O)CC` [SN38, 7-ethyl-10-hydroxy-camptothecin] as the molecule, how does the “concentration required for cell growth inhibition by 90% (therapeutic threshold)” value (BE(2)C cells [3]) read?
A: 25 ng/mL

Q: And the “potentiation of antiproliferative effect by vorinostat” value (BE(2)C cells [4])?
A: moderately synergized

Q: What about the “BE(2)C cell growth inhibition” value (BE(2)C cells [5]) of the same molecule?
A: marginally inhibited

Q: What about the “concentration required for cell growth inhibition by 90%” value (BE(1) cells) of the same molecule?
A: 2 ng/mL

Q: What about the “sensitivity of clones with higher ABCG2 levels” value [2] of the same molecule?
A: increasingly resistant

Q: With `CCc1c2c(nc3ccc(OC(=O)N4CCC(N5CCCCC5)CC4)cc13)-c1cc3c(c(=O)n1C2)COC(=O)[C@]3(O)CC` [irinotecan] as the molecule, how does the “tumor growth (bioluminescence), FIG. 16A” value ([6]; 2x/week over 4 weeks, prodrugs 10 mg/kg SN-38, irinotecan 15 mg/kg) read?
A: no antitumor effect

Q: And the “tumor growth (bioluminescence), FIG. 12” value ([6]; [PEG-SN38-BG]8 10 mg/kg SN-38 IV twice a week x4 weeks, irinotecan 15 mg/kg twice a week)?
A: marginal therapeutic effect and survival extension

Q: What about the “t50% survival (event-free)” value ([6]; small tumors, twice a week x4 weeks) of the same molecule?
A: 20 days

Q: And the tumor response [7]?
A: only slightly delayed

Q: What about the “disease progression (bioluminescence)” value [8] of the same molecule?
A: no significant effect on the disease progression

Q: And the “tumor growth (bioluminescence)” value [9]?
A: marginal effect

Q: What about the “tumor growth (bioluminescence)” value [10] of the same molecule?
A: marginal antitumor effect

Q: What about the “tumor response during treatment” value [11] of the same molecule?
A: had no effect; also recorded: had very little effect; also recorded: only slightly delayed

Q: And the “tumor response (bioluminescence)” value [12]?
A: tumors starting to regrow immediately after treatment cessation; also recorded: able to inhibit tumor growth for the duration of treatment

Q: What about the “tumor response (bioluminescence)” value [13] of the same molecule?
A: only a transient response
